Laboratory results as given in patent US10633635B2, “Methods for production of functional beta cells” (Janssen Biotech, Inc., priority 2016, dated 2020).
“Also recorded” adds a separate entry of the source. Structures can show the parent of a compound that is named as a salt.

Experiments:
MAFA [1] = assay: Small molecule screen: qRT-PCR of MAFA expression at Stage 7 in H1-hESC-derived ALI clusters; assay type: cell-based, human; details: 2 μM small molecule added at Stage 7; S7D7 ALI clusters; quantitative real-time PCR; FIGS. 1A-1D
Description: (§1) The following example is directed to identification of small molecules that can enhance the maturation status of a pancreatic beta cell, via increasing the gene expression of mature beta cell markers including MAFA (v-maf avian musculoaponeurotic fibrosarcoma oncogene homolog A) or UCN3 (urocortin 3). […] Y-compound was added to only during the first 24 hours post-seeding.
(§2) For FIGS. 1A to 1H the cultures were differentiated using the following protocol.
(§3) In general, the embodiments herein differentiate human pluripotent cells substantially as described above in Stages 1-7. For Stage 7, various small molecules were added and their effect was evaluated by quantitative real-time PCR. These small molecules were evaluated and 2 μM of each was added at Stage7.
(§4) Primer details are outlined in Table III.

MAFA [2] = assay: as above; assay type: cell-based, human; details: Stage 7 no ALK5, low T3, ZM, H, NAC, FI, BLAR001; 5 μM AZT; 1 μM or 10 μM DEZA; S7D7 ALI clusters; FIG. 2A
UCN3 = assay: Small molecule screen: qRT-PCR of UCN3 expression at Stage 7 in H1-hESC-derived ALI clusters; assay type: cell-based, human; details: S7D7 ALI clusters; for UCN3 up-regulation during Stage 7: Stage 7 no ALK5, low T3, ZM, H, NAC, FI, BLAR001, 5 μM AZT, 1 μM or 10 μM DEZA, FIG. 2B; for expression of UCN3 as compared to S6D7, or untreated or DMSO treated cultures at Stage 7: 2 μM small molecule added at Stage 7, quantitative real-time PCR, FIGS. 1E-1H
Description: as §1, §2, §3, §4

MAFA or UCN3 = assay: Small molecule screen at Stage 7: induction of MAFA or UCN3 expression; assay type: cell-based, human; details: Stage 7 at 20 mM D-glucose plus BME Vitamin supplement; 79 small molecules of Table XI
Description: as §1, §2
as §3, with “PCR. […]” for “PCR.”
as §4

human islets = assay: Glucose-stimulated insulin secretion (perifusion, C-PEPTIDE ELISA); assay type: cell-based; details: 16.7 mM D-glucose ± 100 ng/ml Exendin-4, FIG. 8D
Description: For quantification of glucose-dependent insulin secretion, Stage 7 ALI clusters, Aggrewell™ clusters and matured human islets were characterized by a cell perifusion system (BioRep Technologies, Miami, Fla., Catalog No. PERI4-02). Briefly, to normalize insulin secretion to a baseline, ALI/Aggrewell™ clusters or human islets were transferred into warm (37° C.) Kreb's Buffer (Table IX). Cells were loaded into perifusion chambers (BioRep Technologies, Catalog No. PERI-CHAMBER), and were continuously perfused (flow rate of 100 μl/min) with […] sequential Kreb's buffers supplemented with either: (i) 3 mM D-glucose; (ii) 16.7 mM D-glucose±100 ng/ml Exendin-4 (“Ex4”); and (iii) 25 mM KCl with 3 mM D-glucose. Specific perifusion protocols are indicated in each figure. Perfusate samples were collected every minute, and C-PEPTIDE protein levels (units in ng/ml) detected by a C-PEPTIDE ELISA (Mercodia, Uppsala, Sweden, Catalog No. 10-1136-01).

INHBB = details: S7D7 ALI clusters; 10 μM ALK5 inhibitor II in Stage 7; FIG. 3A
Description: Cells of the human embryonic stem cell line H1 (“H1-hESC”) (with EZ8 media at passage 28 were seeded as single cells at 0.094×10^6 cells/cm^2 on […] ™ at a 1:30 dilution coated dishes in a media of Dulbecco's Modified Eagle's Medium Nutrient mixture F-12 (“DMEM-F12”), GlutaMAX™ in a 1:100 dilution (“1× concentration”), 0.25 mM ascorbic acid, 100 ng/ml fibroblast growth factor 2 (“FGF2”), 1 ng/ml of transforming growth factor beta (“TGFβ”), insulin-transferrin-selenium-ethanolamine (“ITS-X”) at a 1:100 dilution, 2% fatty-acid free bovine serum albumin (“FAF-BSA”), and 20 ng/ml of insulin-like growth factor-1 (“IGF-1”), supplemented with 10 μM of Rock Inhibitor Y-27632 (“Y-compound”). Forty-eight hours post-seeding, the cultures were washed in incomplete PBS (phosphate buffered saline without magnesium or calcium).
During Stages 1 through 4 of the protocol, cultures were maintained on planar adherent cultures. • a. […]

| Compound | expression of MAFA as compared to S6D7, or untreated or DMSO treated cultures at Stage 7 (MAFA [1]) | expression of the MAFA or UCN3 (MAFA or UCN3) | further results |
| --- | --- | --- | --- |
| CCn1c(-c2nonc2N)nc2cncc(CNC3CCNCC3)c21 [SB747651A dihydrochloride] | significantly upregulated | – | – |
| COc1cc2c(cc1OCCCN1CCCC1)N=C(N)C21CCC1 [A366] | significantly upregulated | – | – |
| O=C(CCl)Nc1ccc(S(=O)(=O)c2ccc(NC(=O)CCl)cc2)cc1 [TC-E5003] | significantly upregulated | – | – |
| COc1cc2c(NC3CCN(C(C)C)CC3)nc(N3CCC(F)(F)CC3)nc2cc1OCCCN1CCCC1 [UNC0642] | significantly upregulated | – | – |
| O=c1cc(N2CCNCC2)oc2c(-c3ccccc3)cccc12 [LY303511] | significantly upregulated | – | – |
| Nc1nccc2c1ncn2[C@@H]1C=C(CO)[C@@H](O)[C@H]1O [3-Deazaneplanocin A] | – | – | MAFA up-regulation during Stage 7 (MAFA [2]): effective up-regulator of MAFA; UCN3 up-regulation during Stage 7 (UCN3): but not UCN3 |
| O=c1c(O)c(-c2ccc(O)c(O)c2)oc2cc(O)ccc12 [Fisetin] | – | induced expression | – |
| O=c1ncccn1[C@@H]1O[C@H](CO)[C@@H](O)[C@H]1O [Zebularine] | – | induced expression | – |
| COc1cc2c(NC3CCN(C(C)C)CC3)nc(C3CCCCC3)nc2cc1OCCCN1CCCC1 [UNC0638] | significantly upregulated | – | – |
| COc1ccc(S(=O)(=O)ON=C2C=C(C)C(=O)C(C)=C2)cc1 [L002] | – | induced expression | – |
| O=C(O[C@@H]1Cc2c(O)cc(O)cc2O[C@@H]1c1cc(O)c(O)c(O)c1)c1cc(O)c(O)c(O)c1 [EGCG] | – | induced expression | – |
| CC(=O)NCC(=O)N1[C@@H]2CC[C@H]1c1ccc(Nc3ncc(C(F)(F)F)c(NC4CCC4)n3)cc12 [PF03814735] | significantly upregulated | – | – |
| Cn1c(/C=C/C(=O)NO)ccc1/C=C/C(=O)c1cccc(F)c1 [MC1568] | significantly upregulated | – | – |
| Cc1cc(/N=N/c2ccc(S(=O)(=O)Nc3ccccn3)cc2)c(N)cc1O [MS436] | significantly upregulated | – | – |
| O=C(CCCCCCC(=O)Nc1cccnc1)NO [Pyroxamide] | – | – | expression of UCN3 as compared to S6D7, or untreated or DMSO treated cultures at Stage 7 (UCN3): significantly upregulated; also recorded: increased |
| Exendin-4: insulin secretagogue, 100 ng/ml in perifusion buffer (Sigma-Aldrich E7144) | – | – | amplitude of the GSIS response (human islets): did not increase the amplitude of the GSIS response |
| CC(C)N(CCCNC(=O)Nc1ccc(C(C)(C)C)cc1)C[C@H]1O[C@@H](n2cc(Br)c3c(N)ncnc32)[C@H](O)[C@@H]1O [SGC0946] | – | induced expression | – |
| O=C1c2c(O)ccc(O)c2C(=O)c2c(NCCNCCO)ccc(NCCNCCO)c21 [Mitoxantrone dihydrochloride] | – | induced expression | – |
| Cc1cccc(-c2n[nH]cc2-c2ccc3ncccc3n2)n1 [ALK5 inhibitor II, 2-(3-(6-Methylpyridin-2-yl)-1H-pyrazol-4-yl)-1,5-naphthyridine] | – | – | INHBB expression relative to human islets (INHBB): enriched above the expression seen in human islets |
| COc1cc2c(Nc3ccc(NC(=O)c4ccccc4)cc3)ncnc2cc1OCCCN1CCOCC1 [ZM447439] | significantly upregulated | – | – |
| Nc1ncn([C@@H]2O[C@H](CO)[C@@H](O)[C@H]2O)c(=O)n1 [5-Azacytidine] | – | induced expression | expression of UCN3 as compared to S6D7, or untreated or DMSO treated cultures at Stage 7 (UCN3): significantly upregulated; also recorded: increased; UCN3 up-regulation during Stage 7 (UCN3): up-regulator |
| COc1cc2c(NC3CCN(C4CCCCC4)CC3)nc(N3CCCN(C(C)C)CC3)nc2cc1OCCCN1CCCCC1 [UNC0646] | significantly upregulated | – | – |
| Cn1nnc2c(C(N)=O)ncn2c1=O [Temozolomide] | – | induced expression | – |
| CC(=O)Nc1ccc(C(=O)Nc2ccccc2N)cc1 [CI994] | – | – | expression of UCN3 as compared to S6D7, or untreated or DMSO treated cultures at Stage 7 (UCN3): significantly upregulated; also recorded: increased |
| Nc1nc(OCc2cc(Br)cs2)c2[nH]cnc2n1 [Lomeguatrib] | – | induced expression | – |
| Cc1cc(Nc2ccc(NC(=O)c3ccc(Nc4ccnc5ccccc45)cc3)cc2)nc(N)n1 [SGI 1027] | – | induced expression | – |
| COc1ccccc1S(=O)(=O)Nc1ccc2c(c1)CN(C)C(=O)N2 [PFI1] | significantly upregulated | – | – |
| CC1=NN(c2ccc(C(=O)O)cc2)C(=O)C1=Cc1ccc(-c2cc(C)c(C)cc2[N+](=O)[O-])o1 [C646] | – | induced expression | – |
